Experimental data from article PMC3303751, “Development of Tyrosine-Based Radiotracer ^99mTc-N4-Tyrosine for Breast Cancer Imaging” (Journal of Biomedicine and Biotechnology, 2012).

Tests used:
[1] = Partition coefficient (1-octanol/sterile water); format: physicochemical; conditions: room temperature
Protocol: To determine the lipophilicity, 20 μL of ^99mTc-N4-Tyrosine was added into an equal volume mixture of 1-octanol and sterile water in a centrifuge tube. The mixture was vortexed at room temperature for 1 minute and then centrifuged at 5,000 rpm for 5 minutes to allow phase separation. From each phase, 0.1 mL of the aliquot was taken out, and the radioactivity was measured by gamma counter (Cobra Quantum, Packard, MN, USA). The measurement was repeated 3 times, and care was taken to avoid cross-contamination between the phases. The partition coefficient value, expressed as log P, was calculated using the following equation:
(1) Log P= log(radioactivity in 1‐octanol layer/radioactivity in sterile water layer)

[2] = Blood clearance in normal rats; format: in vivo; conditions: normal female Fischer 344 rats, i.v. 30 μCi
Protocol: All animal work was carried out in the Small Animal Imaging Facility at MD Anderson under a protocol approved by the Institutional Animal Care and Use Committee. For blood clearance analysis, 3 normal female Fischer 344 rats (150 ± 25 g; Harlan Sprague-Dawley, Indianapolis, IN, USA) were intravenously injected with 30 μCi of ^99mTc-N4-Tyrosine. Blood samples (n = 3/rat) were drawn from each rat through the lateral tail vein by microliter pipette (10 μL) at several time points between 5 minutes and 24 hours after injection. The blood samples were measured for radioactivity by gamma counter, and the radioactivity was expressed as a percentage of the injected dose per gram of blood (%ID/g).

[3] = OLINDA/EXM dosimetry estimates; design: species or system human (70 kg standard man model)
Source text: Rat absorbed dose estimates for ^99mTc-N4-Tyrosine were computed from biodistribution data. Individual organ and whole-body time-activity curves were fitted to exponential functions using OLINDA/EXM software (version 1.1; Vanderbilt University, Nashville, TN, USA). These functions were then integrated analytically to determine the area under the curve to yield the residence time of ^99mTc-N4-Tyrosine in each organ. It was assumed that the injected activity of ^99mTc-N4-Tyrosine was uniformly distributed throughout the body immediately following injection. Mass correction factors were used to account for the different ratios of organs to total body weight and different scaling of residence times between rats and humans. Residence times were then used to calculate target organ absorbed radiation doses for a 70 kg standard man model using the OLINDA/EXM software.

[4] = 15 mCi per patient, 70 kg adult man

^99mTc-O-[3-(1,4,8,11-tetraazabicyclohexadecane)-propyl]-tyrosine [^99mTc-N4-Tyrosine]
log P [1]: −2.83 ± 0.082 | plasma half-life of the distribution phase (t1/2α) [2]: 9.31 ± 0.759 min | plasma half-life of the elimination phase (t1/2β) [2]: 90.14 ± 1.901 min | Human dose (15 mCi), Adrenals [3, 4]: 2.58E − 01 rem | Human dose (15 mCi), Brain [3, 4]: 2.61E − 02 rem | Human dose (15 mCi), Breasts [3, 4]: 7.08E − 02 rem | Human dose (15 mCi), Effective dose [3, 4]: 1.22E − 01 rem | Human dose (15 mCi), Effective dose equivalent [3, 4]: 3.17E − 01 rem | Human dose (15 mCi), Gallbladder wall [3, 4]: 2.10E − 01 rem | Human dose (15 mCi), Heart wall [3, 4]: 4.73E − 01 rem | Human dose (15 mCi), Kidneys [3, 4]: 2.70E + 00 rem | Human dose (15 mCi), Liver [3, 4]: 3.06E − 01 rem | Human dose (15 mCi), Lower large intestine wall [3, 4]: 9.00E − 02 rem | Human dose (15 mCi), Lungs [3, 4]: 1.26E − 01 rem | Human dose (15 mCi), Muscle [3, 4]: 7.44E − 02 rem | Human dose (15 mCi), Osteogenic cells [3, 4]: 2.90E − 01 rem | Human dose (15 mCi), Ovaries [3, 4]: 9.80E − 02 rem | Human dose (15 mCi), Pancreas [3, 4]: 2.09E − 01 rem | Human dose (15 mCi), Red marrow [3, 4]: 1.06E − 01 rem | Human dose (15 mCi), Skin [3, 4]: 4.95E − 02 rem | Human dose (15 mCi), Small intestine [3, 4]: 1.50E − 01 rem | Human dose (15 mCi), Spleen [3, 4]: 3.14E − 01 rem | Human dose (15 mCi), Stomach wall [3, 4]: 1.38E − 01 rem | Human dose (15 mCi), Testes [3, 4]: 4.40E − 02 rem | Human dose (15 mCi), Thymus [3, 4]: 1.27E − 01 rem | Human dose (15 mCi), Thyroid [3, 4]: 6.92E − 02 rem | Human dose (15 mCi), Total Body [3, 4]: 1.10E − 01 rem | Human dose (15 mCi), Upper large intestine wall [3, 4]: 1.36E − 01 rem | Human dose (15 mCi), Urinary bladder wall [3, 4]: 7.71E − 02 rem | Human dose (15 mCi), Uterus [3, 4]: 9.80E − 02 rem | Total rem absorbed by each organ versus US FDA limits for radioactive research drugs ([3]; proposed injection of 15 mCi per patient): below these limits
